The source of these data is patent US9884037B2, “Pharmaceutical composition containing 8 triglycerides, and preparations and use thereof” (ZHEJIANG KANGLAITE GROUP CO., LTD., priority 2014, dated 2018).

Converted amounts (≈) assume the structure as drawn.

Broadly, the IC50 is the concentration that gives 50% inhibition. Lower therefore signals greater potency in that assay.

The test system of assay [1] is Bcap-37 (human breast cancer cells). Put plainly: Inhibition on human tumor cell lines in MTT method in vitro. It counts as cell-based. Conditions: Bcap37, Bcap-37, MTT, 48 h. The text has this: (§1) Experimental Materials and the Preparation Thereof: • (1) Cell lines: PANC-1 (human pancreatic cancer cells), SKOV3 (human ovarian cancer cells), MCF-7 (human breast cancer cells), Bcap-37 (human breast cancer cells), SMMC-7721 (human hepatic cancer cells), HepG-2 (human hepatic cancer cells), A549 (human lung cancer cells) and H460 (human lung cancer cells), storaged and passaged maintainably in Research and Evaluation Center for Pharmacology, Shanghai Institute of Pharmaceutical Industry; • (2) DMEM complete medium supplied with 10% newborn calf serum (GIBCO BRL), 1% of penicillin (100 U/mL)+streptomycin (100 μg/mL); • (3) 0.25% trypsin solution, purchased from Invitrogen Corp. and storaged at −20° C.; • (4) Phosphate buffer (PBS): NaCl 8 g, KCl 0.2 g, Na2HPO4 1.15 g and KH2PO4 0.2 g, dissolved in 1 L double-distilled water and autoclaved at 121° C. for 20 min, then storaged at 4° C.; • (5) MTT (AMRESCO) solution: 5 mg/ml in PBS; • (6) Formazan crystal dissolving solution: SDS 10 g, isobutanol 5 ml and concentrated hydrochloric acid 0.1 ml, dissolved in 100 ml of deionized double distilled water.
(§2) The inhibition effects of samples on the above-mentioned cell lines were detected by using MTT method. The specific procedures were as follows:
(§3) (1) Cell culture: (a) Storaged cells were taken out from the liquid nitrogen, thawed quickly in a 37° C. water bath, then aseptically transferred into 6 ml of cellular medium in a 10 ml centrifugal tube, and centrifuged at 1000 rpm for 5 min. The supernatant was discarded, then the precipitated cells were re-suspensed in 5-6 ml cellular media by pipetting and transferred into a flask in a 37° C. incubator for cell culture; (b) Next day, the flask was taken out from the incubator and the used medium was discarded, then the cells were incubated in 5-6 ml fresh medium in the 37° C. incubator; (c) On the third day, the flask was taken out from the incubator and the used medium was discarded, then 2-3 ml of PBS (pH7.4) was added into the flask with rocking for cleaning it and the used PBS was discarded. Such a cellular cleaning step was repeated once again. 3-5 drops of 0.25% trypsin solution were added into the flask with sloshing, thus well-distributed in it. The flask was capped and placed in a 37° C. incubator for about 3 min, and the separation of cells from the flask wall was observed under the microscope. […]
(§4) (4) Cells in a logarithmic growth stage were trypsinized and washed, then re-suspended in the medium containing 10% calf serum. The number of living cells was counted in Trypan blue dye exclusion method and cell suspensions were adjusted into a density of 2×10^5 cell/ml. […]
Background: Tetrazolium dyes change colour on reduction, which living cells bring about.

The subject of assay [2] is SMMC-7721 (human hepatic cancer cells). Described as above. It counts as cell-based. Conditions: SMMC-7721, MTT, 48 h.
Excerpt: as §1, §2, §3, §4

Assay [3] deals with H460 (human lung cancer cells). Described as above. The assay is classed as cell-based. Conditions: NCI-H460, 48 h.
Excerpt: as §1, §2, §3, §4

Assay [4] has as its system PANC-1 (human pancreatic cancer cells). The description is as above. The assay is classed as cell-based. Conditions: PANC-1, MTT, 48 h.
Excerpt: as §1, §2, §3, §4

A further assay concerns IL-2. Put plainly: Production of IL-2 in mice bearing cancer (L1210), IL-2 dependent CTLL cell strain. It counts as in vivo, DBA/2 mice. The following applies: 20 mg/kg, iv × 7, mice suffering from L1210 leukemia. As for the experimental part:
Each of 60 DBA/2 mice was inoculated subcutaneously with 1×10^4 L1210 leukemia cells of mice. Next day, the mice were grouped randomly into 6 groups (10 mice per group): Lentinan 20 mg/kg, the injection of the invention (6.25 ml/kg, 12.5 ml/kg and 25 ml/kg), solvent control and NS control. Animals were administered, i.v., for 7 days, then sacrificed. Spleens were picked up in aseptic condition. Splenocytes were prepared and adjusted into 1×10^7/ml. To each well of a 24 well plate were added splenocytes cells (2 ml) and Con A (5 μg/ml). After the plate was incubated in a 37° C. incubator under 5% CO2 for 24 h, the supernate was collected. The activity of IL-2 was determined in IL-2 dependent CTLL cell strain by using the method of ^3H-TdR incorporation.

Assay [5] concerns NK cells. Nature of the assay: Activity of NK cells in mice bearing cancer (L1210). It counts as in vivo, DBA/2 mice. Conditions: 20 mg/kg, iv × 7, mice bearing L1210. As for the experimental part:
Each of 60 DBA/2 mice was inoculated subcutaneously with 1×10^4 L1210 leukemia cells of mice. Next day, the mice were grouped randomly into 6 groups (10 mice per group): Lentinan 20 mg/kg (positive control), the injection of the invention (6.25 ml/kg, 12.5 ml/kg and 25 ml/kg), solvent control and NS control. Animals were administered, i.v., for 7 days, then sacrificed. Spleens were picked up in aseptic condition. Splenocytes were prepared and adjusted into 1×10^6/ml. The activity of NK cells was detected by using the inhibition on ^3H-TdR incorporation. To wells of a 96 well microplate were added splenocytes cells (effector cells) 100 μl/well, YAC-1 cells (target cells, 1×10^4 cells/ml) 100 μl/well and ^3H-TdR 0.5 μci/well, in triplicate. After being incubated in a 37° C. incubator under 5% CO2 for 24 h, cells were collected, and CPM values were determined. The specific percentage inhibition (Pi), indicating the activity of NK cells, was calculated according to the above formula.

In assay [6] the test system is NK cells. Nature of the assay: Activity of natural killer cells (NK cells) in mice in vitro (inhibition on 3H-TdR incorporation, YAC-1 target cells). It counts as cell-based, C57BL/6 mice. Conditions: 100 μl; for CPM (x ± SD): Splenocytes:YAC-1=100:1, 24 h. As for the experimental part: Method: The activity of NK cells were detected by the inhibition on ^3H-TdR incorporation.
Spleens were picked up from C57BL/6 mice in aseptic condition. Splenocytes, as effector cells, were adjusted to 1×10^6 cells/ml. YAC-1 cells, target cells, which have been cultured for 24 h, were adjusted to 1×10^4 cells/ml. The cells were added into wells of a 96 well microplate (100 μl/well). The experiment groups were as follows: the injection of the invention in four concentrations, lentinan (positive control group) in four concentrations, corresponding solvent (blank control I) and medium (blank control II). To each well of a 96 well microplate were added cells (Splenocytes: YAC-1=100:1) (100 μl), test sample (100 μl) and ^3H-TdR 0.5 μci/well. After being incubated in a 37° C. incubator under 5% CO2 for 24 h, cells were collected, and CPM values were determined. The specific percentage inhibition (Pi), indicating the activity of NK cells, was calculated according to the formula: Pi=(1−CPMExp./CPMcont.)×100%

The test system of assay [7] is splenocytes of mice bearing L1210 leukemia cells. Put plainly: Splenic lymphopoiesis in mice bearing L1210 leukemia cells. The assay is classed as in vivo, DBA/2 mice. Conditions: 20 mg/kg, iv × 7, mice bearing L1210. As for the experimental part:
Each of 60 DBA/2 mice was inoculated subcutaneously with 1×10^4 L1210 leukemia cells of mice. Next day, the mice were grouped randomly into 6 groups (10 mice per group): Lentinan 20 mg/kg, the injection of the invention (6.25 ml/kg, 12.5 ml/kg and 25 ml/kg), solvent control and NS control. Animals were administered, i.v., for 7 days, then sacrificed. Spleens were picked up in aseptic condition. Spleens were homogenized and splenocytes were counted and adjusted into 1×10^7/ml. Cells (100 μl/well) and medium (100 μl/well) were added into wells of a 96 well microplate in triplicate. The 96 well microplate was incubated in a 37° C. incubator under 5% CO2 for 48 h. Then, ^3H-TdR (0.5 μci/well) was added and the incubation was continued for 20 h. Cells were collected, and CPM values were determined and compared with control groups. […] Lentinan has also shown immuno-enhancement effect.

The next assay deals with Splenocytes. Nature of the assay: Splenic lymphopoiesis induced by ConA in mice in vitro (3H-TdR incorporation). It counts as cell-based, C57BL/6 mice. Conditions: 100 μl. As for the experimental part:
Spleens were picked up from C57BL/6 mice in aseptic condition. Splenocytes were separated and the concentration of cells was adjusted to 1×10^7 cells/ml with RPMI 1640+15% FCS medium. The experiment groups were as follows: the injection of the invention in four concentrations, lentinan (positive control group) in four concentrations, corresponding solvent (blank control I) and medium (blank control II). 100 μl Cells, 100 μl solution of drug/control and 50 μl ConA were added in each well in triplicate. The 96 well microplate was incubated in a 37° C. incubator under 5% CO2 for 48 h. ^3H-TdR (0.5 μci/well) was added and the incubation was continued for 20 h. Cells were collected, and CPM values were determined in a liquid scintillation counter and compared with control groups. It is shown in the results (table 3) that the injection of the invention, as same as lentinan, has obviously facilitated the splenic lymphopoiesis in mice in vitro and the effect is linear dependent to the concentration.

For the molecule `CC(=O)O[C@H]1C(=O)[C@@]2(C)[C@H]([C@H](OC(=O)c3ccccc3)[C@]3(O)C[C@H](OC(=O)[C@H](O)[C@@H](NC(=O)c4ccccc4)c4ccccc4)C(C)=C1C3(C)C)[C@]1(OC(C)=O)CO[C@@H]1C[C@@H]2O` [Taxol], the IC50 in [1] came to 0.28 µg/mL (≈ 0.328 µM); in [2], 0.41 µg/mL (≈ 0.48 µM); in assay [3] it was 0.49 µg/mL (≈ 0.574 µM); in assay [4] it was 0.44 µg/mL (≈ 0.515 µM).
For Lentinan, the “CPM (x ± SD) (production of IL-2)” value in the assay with IL-2 was determined as 2750 ± 123 CPM. The “CPM (x ± SD)” value was determined as 5660 ± 260 CPM with NK cells [5]; 8130 ± 930 CPM in the assay on NK cells [6] ((1:1) dilution); 7892 ± 995 CPM in the assay with NK cells [6] ((1:2) dilution); 5544 ± 85 CPM in the assay on NK cells [6] ((1:4) dilution); 8625 ± 1135 CPM in the assay with NK cells [6] ((stock solution)); 7410 ± 770 CPM in assay [7]. The “CPM (x ± SD)” value in the assay on Splenocytes ((1:1) dilution) was determined as 7700 ± 747 CPM; in the assay with Splenocytes ((1:2) dilution), 11025 ± 1133 CPM; in the assay on Splenocytes ((1:4) dilution), 11555 ± 1279 CPM; with Splenocytes ((stock solution)) it was 7420 ± 957 CPM. The “Pi (%) (activity of NK cells)” value in the assay on NK cells [5] worked out at 54.5%. In addition, the “Pi % (specific percentage inhibition, activity of NK cells)” value in the assay with NK cells [6] ((1:1) dilution) is 33.5%; in the assay on NK cells [6] ((1:2) dilution) it was 35.5%; with NK cells [6] ((1:4) dilution), 54.5%; with NK cells [6] ((stock solution)), 29.5%.
